In article PMC5260423 (Journal of Veterinary Internal Medicine, 2016):

Tests used:
[1] = type: in vivo, dog
[2] = in vivo; cited from earlier work
[3] = type: in vivo, dog; remark: listed apart in the source
[4] = type: in vivo, dog; remark: listed apart in the source
[5] = test system: Anaplasma phagocytophilum; type: in vivo, dog
[6] = type: in vivo, dog; settings: 15 mg/kg PO q12 h for 2 weeks
[7] = not given; remark: listed apart in the source
[8] = type: in vivo, dog; remark: listed apart in the source
[9] = not given; remark: listed apart in the source
[10] = type: in vivo, dog; settings: mean ± SD; 18 of 20 dogs; single 1 mg/kg oral aspirin; LC‐MS
[11] = target: Angiotensin converting enzyme (ACE) (Canis lupus familiaris, UniProt A0A8I3S3I6); type: in vivo, dog; settings: enalapril 0.5 mg/kg orally twice a day, 14–21 days
[12] = type: in vivo, cat
[13] = type: in vivo, dog; settings: 7 days, AST 24 hours after last dose
[14] = type: in vivo, dog; remark: listed apart in the source
tubulin = type: cell-based, dog
platelet function [15] = type: in vivo, dog; settings: Day 7
platelet function [16] = type: in vivo, dog
platelet function [17] = type: in vivo, dog; settings: day 7; HM5 analyzer
platelet aggregation = type: in vivo, dog; settings: 1 mg/kg orally; 20, 40 and 180 minutes
Pseudomonas aeruginosa = type: in vivo, dog
Ixodes scapularis = type: in vivo, dog
Borrelia burgdorferi = type: in vivo, dog; settings: single oral dose; negative antibody, PCR, and culture
[18] = test system: Anaplasma phagocytophilum; type: in vivo, dog; settings: all sarolaner‐treated dogs
platelet function [19] = type: in vivo, dog; settings: day 7
platelet function [20] = type: in vivo, dog; settings: day 7; remark: listed apart in the source
[21] = test system: hypothalamic‐pituitary‐thyroid axis; type: in vivo, dog; settings: mean dose 0.024 mg/kg every 24 hours for 8 or 16 weeks
[22] = type: in vivo, dog; remark: listed apart in the source
[23] = 8.5 mg/kg orally every 12 hours

Sequence of Angiotensin converting enzyme (ACE) (A0A8I3S3I6 31-1241 limits assumed): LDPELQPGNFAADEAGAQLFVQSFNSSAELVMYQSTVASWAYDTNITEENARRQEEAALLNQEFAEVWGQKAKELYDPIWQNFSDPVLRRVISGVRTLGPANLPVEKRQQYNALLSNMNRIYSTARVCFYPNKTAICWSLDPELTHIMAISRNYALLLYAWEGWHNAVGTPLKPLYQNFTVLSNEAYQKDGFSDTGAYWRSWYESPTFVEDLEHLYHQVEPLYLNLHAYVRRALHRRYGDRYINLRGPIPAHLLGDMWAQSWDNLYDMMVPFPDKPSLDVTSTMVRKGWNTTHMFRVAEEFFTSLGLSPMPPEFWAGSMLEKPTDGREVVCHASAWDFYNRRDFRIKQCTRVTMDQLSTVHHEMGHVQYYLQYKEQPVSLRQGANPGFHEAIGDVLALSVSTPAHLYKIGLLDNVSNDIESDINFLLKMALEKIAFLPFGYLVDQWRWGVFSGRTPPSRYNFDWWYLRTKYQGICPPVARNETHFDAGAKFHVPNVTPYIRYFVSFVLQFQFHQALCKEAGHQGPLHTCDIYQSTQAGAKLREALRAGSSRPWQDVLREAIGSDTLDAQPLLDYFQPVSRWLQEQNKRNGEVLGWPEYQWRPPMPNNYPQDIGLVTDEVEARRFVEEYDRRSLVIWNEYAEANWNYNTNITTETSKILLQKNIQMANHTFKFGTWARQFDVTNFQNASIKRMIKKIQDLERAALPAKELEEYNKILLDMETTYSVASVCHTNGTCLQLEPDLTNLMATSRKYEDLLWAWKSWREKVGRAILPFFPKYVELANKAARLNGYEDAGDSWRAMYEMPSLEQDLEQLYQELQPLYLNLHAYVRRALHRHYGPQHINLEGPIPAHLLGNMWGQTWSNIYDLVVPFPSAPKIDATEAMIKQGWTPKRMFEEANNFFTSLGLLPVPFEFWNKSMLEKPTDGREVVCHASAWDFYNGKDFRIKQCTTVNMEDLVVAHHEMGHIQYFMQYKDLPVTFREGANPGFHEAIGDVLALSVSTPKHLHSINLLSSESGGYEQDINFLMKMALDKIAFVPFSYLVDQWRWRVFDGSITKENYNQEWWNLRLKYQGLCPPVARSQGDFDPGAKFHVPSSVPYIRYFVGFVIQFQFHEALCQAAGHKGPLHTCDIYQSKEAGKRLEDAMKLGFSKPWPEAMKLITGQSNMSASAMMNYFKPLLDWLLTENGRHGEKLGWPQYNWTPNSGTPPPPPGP

With Darbepoetin alfa the “possible PRCA” value ([1]; 1/34 dogs) was 2.9%, the “dogs with potential adverse events” value ([1]; dog, in vivo) was 19/34 and the “longest dosing interval at which a response was sustained” value ([1]; dog, in vivo) was at most 21 days. For the same compound, the “responders (HCT of 30% achieved)” value ([1]; median starting dose 0.5 mcg/kg, every 7 days in 31/34 dogs) was “Twenty‐nine of 34 dogs were responders”, the “median time to response” value ([1]; range 6 ‐ 106) was 28 days and the “median survival following initiation of therapy” value ([1]; range 30 – 546) was 118 days. The “cats that responded, of 25” value [2] was 14 cats.

For Cc1[nH]c(/C=C2\C(=O)Nc3ccc(F)cc32)c(C)c1C(=O)NCCN1CCCC1 [toceranib phosphate], the “median time to development of proteinuria” value ([3]; dogs that developed proteinuria) was 47 days and the “median UPC in dogs that developed proteinuria” value ([3]; urine protein creatinine ratio) was 0.7.

With C[C@]12CCC(=O)C=C1CC[C@@H]1[C@@H]2[C@@H](O)C[C@@]2(C)[C@H]1CC[C@]2(O)C(=O)CO [Hydrocortisone, hydrocortisone] the “serum adiponectin concentrations on days 1, 3, 7, 30, 60, and 90 versus day 0” value [4, 23] was “decreased”, the “serum leptin concentrations on days 1, 3, 7, 30, 60, and 90 versus day 0” value [4, 23] was “significantly increased” and the “abdominal visceral fat mass on days 30, 60, and 90 versus day 0” value ([4]; 8.5 mg/kg orally every 12 hours for 90 days, six dogs, CT) was “increased abdominal visceral fat mass”.

In the case of C[C@H]1c2cccc(O)c2C(=O)C2=C(O)[C@]3(O)C(=O)C(C(N)=O)=C(O)[C@@H](N(C)C)[C@@H]3[C@@H](O)[C@@H]21 [doxycycline], the “AP antibodies on Week 48 in Group 1” value ([5]; doxycycline 5 mg/kg PO twice daily for 4 weeks from Week 20) is reported as “The only dogs that became AP seronegative by Week 48 were administered doxycycline”.

With COc1cccc2c1C(=O)c1c(O)c3c(c(O)c1C2=O)C[C@@](O)(C(=O)CO)C[C@@H]3O[C@H]1C[C@H](N)[C@H](O)[C@H](C)O1 [doxorubicin] the “MTD of doxorubicin in the combination” value (IV every 21 days with toceranib 2.75 mg/kg PO every other day, 21 dogs) was 25 mg/m2 and the “dose limiting toxicity (DLT)” value (dog, in vivo) was “neutropenia”.

With Cc1ncc([N+](=O)[O-])n1CCO [Metronidazole, metronidazole] the “altered fecal metabolites, out of 469 measured” value [6] was 98 and the “fecal secondary bile acids” value ([6]; P < 0.001) was “reduction in secondary bile acids”.

With O=P1(N(CCCl)CCCl)NCCCO1 (stereo not drawn) [cyclophosphamide] the “dogs with stable disease or partial/complete remission >100 days” value ([7]; 10 mg cyclophosphamide daily/every other day) was 74%, the “dogs that developed haematuria” value ([7]; 10 mg cyclophosphamide daily/every other day, three dogs) was 8.6% and the “dogs still alive over one year later” value ([7]; 13 of 35 dogs) was 37%. For the same compound, the “dogs with DFI >6 months” value ([7]; 20 of 35 dogs) was 57% and the “median survival time (MST), intermediate/high grade sarcomas” value ([7]; n = 18) was 362 days.

For cyanocobalamin [cbl], the “median serum cbl after 28 days, PO” value ([8]; daily cyanocobalamin tablets ¼ to 1 mg by weight, n = 22, 245 at inclusion) was 970 ng/L, the “mean increase in serum cbl at 28 days to baseline, PE” value ([8]; dog, in vivo) was 1465 ± 745 ng/L and the “mean increase in serum cbl at 28 days to baseline, PO” value ([8]; dog, in vivo, po) was 888 ± 449 ng/L. The “mean serum cbl after 3 months, PE” value ([8]; n = 13) was 803 ± 275 ng/L, the “mean serum cbl after 28 days, PE” value ([8]; n = 19, 221 ± 43 at inclusion) was 1686 ± 757 ng/L and the “median serum cbl after 3 months, PO” value ([8]; n = 20) was 1334 ng/L. The “median increase in serum cbl after 3 months, PE” value ([8]; range 38–997) was 608 ng/L and the “median increase in serum cbl after 3 months, PO” value ([8]; range 538–3663) was 970 ng/L.

In the case of COc1ccc2[nH]cc(CCNC(C)=O)c2c1 [treatment C, melatonin], the tolerability ([9]; one of the two dogs) is reported as “had to be withdrawn due to emesis”.

In the case of O=C(O)c1ccccc1O [SA, salicylic acid], the “maximum plasma concentrations (Cmax)” value [10] is reported as 21 ± 5 µM.

For CCOC(=O)[C@H](CCc1ccccc1)N[C@@H](C)C(=O)N1CCC[C@H]1C(=O)O [enalapril], the “median post therapy ACE activity, dogs homozygous for DNA variant” value ([11]; baseline 18.05 U/L) was under 5.0 U/L and the “median post therapy ACE activity, wildtype dogs” value ([11]; baseline 27.4 U/L) was under 5.0 U/L.

In the case of COc1ccc2[nH]c([S+]([O-])Cc3ncc(C)c(OC)c3C)nc2c1 (stereo not drawn) [omeprazole], the “serum gastrin in comparison to placebo” value ([12]; 0.83–1.6 mg/kg PO q12 h for 60 days, 6 cats, P < 0.002) is reported as “significantly higher” and the “intragastric pH after cessation” value ([12]; two cats with intragastric pH capsules) is reported as “Evidence of gastric hyperacidity”.

For C[C@]12CC[C@H]3[C@@H](CC[C@@]45O[C@@H]4C(O)=C(C#N)C[C@]35C)[C@@H]1CC[C@@H]2O [treatment A, trilostane], the “dogs with complete hair regrowth” value ([9]; after three months of treatment (stated for treatment A)) was 50% and the “dogs with partial regrowth” value ([9]; dog, in vivo) was 37.5%.

In the case of CC(=O)OCC(=O)[C@@]1(O)CC[C@H]2[C@@H]3CCC4=CC(=O)CC[C@]4(C)[C@H]3C(=O)C[C@@]21C [CA, cortisone acetate], the “mean (±SEM) post AST serum cortisol, 25 mg” value [13] is reported as 335 ± 13 nmol/L, the “mean (±SEM) post AST serum cortisol, 37.5 mg” value [13] is reported as 326 ± 13 nmol/L and the “mean (±SEM) post AST serum cortisol, 50 mg” value [13] is reported as 308 ± 13 nmol/L. The “mean (±SEM) post AST serum cortisol, 12.5 mg” value ([13]; 14 dogs, placebo 365 ± 13) was 347 ± 13 nmol/L.

For CCOc1cc(N)c(Cl)cc1C(=O)NCC1CN(Cc2ccc(F)cc2)CCO1 (stereo not drawn) [mosapride], the “median increase of plasma motilin after feeding, Group N” value ([14]; feeding only 65.0) was -1.6 pg/mL and the “median increase of plasma motilin after feeding, Group S” value ([14]; feeding only 173.3) was 37.0 pg/mL.

With COC(=O)Nc1nc2ccc(C(=O)c3ccccc3)cc2[nH]1 [MBZ, mebendazole] the “tubulin depolymerization versus untreated control” value (tubulin) was “increased depolymerization of tubulin”.

With CC(=O)Oc1ccccc1C(=O)O [aspirin, acetylsalicylic acid] the “dogs with PFA‐100 closure time >300 seconds, Dose A” value (platelet function [15]; 0.5 mg/kg, q24 h) was 0%, the “dogs with PFA‐100 closure time >300 seconds, Dose B” value (platelet function [15]; 1 mg/kg, q24 h) was 25% and the “dogs with PFA‐100 closure time >300 seconds, Dose C” value (platelet function [15]; 2 mg/kg, q24 h) was 62.5%. For the same compound, the “dogs with PFA‐100 closure time >300 seconds, Dose D” value (platelet function [15]; 4 mg/kg, q24 h) was 87.5%, the “dogs with PFA‐100 closure time >300 seconds, Dose E” value (platelet function [15]; 10 mg/kg, q12 h) was 87.5% and the “mean decrease in maximum amplitude, Dose A” value (platelet function [16]; 0.5 mg/kg, q24 h PO, Day 7 versus Day 0) was 3.8%. For the same compound, the “mean decrease in maximum amplitude, Dose B” value (platelet function [16]; 1 mg/kg, q24 h PO, Day 7) was 41.3%, the “mean decrease in maximum amplitude, Dose C” value (platelet function [16]; 2 mg/kg, q24 h PO, Day 7) was 81.3% and the “mean decrease in maximum amplitude, Dose D” value (platelet function [16]; 4 mg/kg, q24 h PO, Day 7) was 75.9%. The “mean decrease in maximum amplitude, Dose E” value (platelet function [16]; 10 mg/kg, q12 h PO, Day 7) was 87.8%, the “maximum plasma concentrations (Cmax)” value [10] was 0.23 ± 0.21 µM and the “PW % aggregation with AA, post treatment mean” value (platelet function [17]) was 7%. For the same compound, the “inhibition of platelet aggregation after single dose” value (platelet aggregation) was “did not cause measureable inhibition of platelet aggregation”.

For CC[C@H]1OC(=O)[C@H](C)[C@@H](O[C@H]2C[C@@](C)(OC)[C@@H](O)[C@H](C)O2)[C@H](C)[C@@H](O[C@@H]2O[C@H](C)C[C@H](N(C)C)[C@H]2O)[C@](C)(O)C[C@@H](C)CN(C)[C@H](C)[C@@H](O)[C@]1(C)O [Azithromycin], the “concentration of BHL, HHL and OdDHL in ear canal samples” value (Pseudomonas aeruginosa; 1 mL of 50 µg/mL topical SID for 56 days, P ≥ 0.2) was “not affected” and the “clinical signs and duration of the disease” value (Pseudomonas aeruginosa; P = 0.5) was “no effect”.

In the case of CS(=O)(=O)CC(=O)N1CC2(C1)OCc1cc(C3=NO[C@@](c4cc(Cl)c(F)c(Cl)c4)(C(F)(F)F)C3)ccc12 [sarolaner], the “percent reduction in mean live tick counts, Day 29, treated 28 days prior” value (Ixodes scapularis; 2 mg/kg oral) is reported as 90.9%, the “percent reduction in mean live tick counts, Day 30, treated 21 days prior” value (Ixodes scapularis; 2 mg/kg oral) is reported as 100% and the “percent reduction in mean live tick counts, Day 30, treated 28 days prior” value (Ixodes scapularis; 2 mg/kg oral) is reported as 97.1%. The “percent reduction in mean live tick counts, Day 33, treated 21 days prior” value (Ixodes scapularis; 2 mg/kg oral) was 100%, the “percent reduction in mean live tick counts, Day 33, treated 28 days prior” value (Ixodes scapularis; 2 mg/kg oral) was 100% and the “adverse reactions to treatment” value (Ixodes scapularis; dog, in vivo) was “no adverse reactions”. The “transmission of B. burgdorferi to dogs infested 21 or 28 days after treatment” value (Borrelia burgdorferi) was “prevented transmission” and the “A. phagocytophilum antibody in treated dogs” value [18] was “negative antibody”.

In the case of COC(=O)[C@H](c1ccccc1Cl)N1CCc2sccc2C1 [clopidogrel], the “PFA closure time, COL‐ADP cartridge, post treatment mean” value (platelet function [19]) is reported as 185 s, the “PFA closure time, P2Y cartridge, post treatment mean” value (platelet function [19]) is reported as over 300 s and the “MP AUC with AA, post treatment mean” value (platelet function [20]) is reported as 19 U. The “MP AUC with ADP, post treatment mean” value (platelet function [20]) was 13 U, the “PW % aggregation with AA, post treatment mean” value (platelet function [17]) was 4% and the “PW % aggregation with ADP, post treatment mean” value (platelet function [17]) was 9%.

In the case of N[C@@H](Cc1cc(I)c(Oc2cc(I)c(O)c(I)c2)c(I)c1)C(=O)O [levothyroxine], the “mean serum TSH during administration compared to baseline” value [21] is reported as “significantly lower” and the “mean serum T4 and fT4 during administration compared to baseline” value ([21]; 28 dogs) is reported as “significantly higher”.

For Cc1oncc1C(=O)Nc1ccc(C(F)(F)F)cc1 [leflunomide], the “increased liver enzyme activities” value ([22]; 1 of 16) was 6.3%, the thrombocytopenia ([22]; 2 of 31) was 6.5% and the lethargy ([22]; 2 of 92) was 2.2%. For the same compound, the suspect blood dyscrasia ([22]; 3 of 92) was 3.3%, the diarrhea ([22]; 3 of 92, mean dose 1.79 ± 0.8 mg/kg/day) was 3.3% and the “discontinued due to possible adverse events” value ([22]; 6 dogs) was 6.5%. The “dogs with apparent positive response” value ([22]; 12 of 17 dogs (IMPA, IMTP, CH)) was 70.5%.

For C[C@]12C=CC(=O)C=C1CC[C@@H]1[C@@H]2[C@@H](O)C[C@@]2(C)[C@H]1CC[C@]2(O)C(=O)CO [prednisolone], the clinical abnormalities ([5]; prednisolone 2 mg/kg PO daily for 2 weeks from Week 24) was “Clinical abnormalities were not detected”.
